The target of the assay is T1, CFTR (Homo sapiens, UniProt P13569, DEL508-508).
T1 construct: endogenous in cells; host or cells: primary human bronchial epithelial cells from CF subjects (F508del/MF-HBE), differentiated at air-liquid interface
In words: HBE assay: Ussing chamber assay of CFTR-mediated short-circuit currents. The note with it: for EC50: read-out: HBE EC50. It is filed as cell-based. In short, it runs like this: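 CFTR-mediated Isc (μA/cm²) equals the peak response to apical 20 μM forskolin minus the residual after a 20 μM each BPO/GlyH-101/CFTR inhibitor 172 cocktail, recorded in Ussing chambers at Vhold 0 mV, 37 °C, pH 7.4, with 30 μM apical amiloride. Cells were F508del/MF HBE cultures preincubated 18-24 h with corrector (concentration range or 10 μM) plus 1 μM ivacaftor in 20% human serum.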

[1] abbreviates: Table 13, at 10 μM, read-out: HBE Activity at 10 μM (%).
Setting [2] is: Table 10, read-out: HBE Max activity (%).
Where [3] appears, read: Table 11, read-out: HBE Max Activity (%).
Where [4] appears, read: Table 13, read-out: HBE Max Activity (%).

Read-outs that look alike come from different tables or passages of the source.

T1 sequence (P13569 with tags, fused parts or gaps DEL508-508): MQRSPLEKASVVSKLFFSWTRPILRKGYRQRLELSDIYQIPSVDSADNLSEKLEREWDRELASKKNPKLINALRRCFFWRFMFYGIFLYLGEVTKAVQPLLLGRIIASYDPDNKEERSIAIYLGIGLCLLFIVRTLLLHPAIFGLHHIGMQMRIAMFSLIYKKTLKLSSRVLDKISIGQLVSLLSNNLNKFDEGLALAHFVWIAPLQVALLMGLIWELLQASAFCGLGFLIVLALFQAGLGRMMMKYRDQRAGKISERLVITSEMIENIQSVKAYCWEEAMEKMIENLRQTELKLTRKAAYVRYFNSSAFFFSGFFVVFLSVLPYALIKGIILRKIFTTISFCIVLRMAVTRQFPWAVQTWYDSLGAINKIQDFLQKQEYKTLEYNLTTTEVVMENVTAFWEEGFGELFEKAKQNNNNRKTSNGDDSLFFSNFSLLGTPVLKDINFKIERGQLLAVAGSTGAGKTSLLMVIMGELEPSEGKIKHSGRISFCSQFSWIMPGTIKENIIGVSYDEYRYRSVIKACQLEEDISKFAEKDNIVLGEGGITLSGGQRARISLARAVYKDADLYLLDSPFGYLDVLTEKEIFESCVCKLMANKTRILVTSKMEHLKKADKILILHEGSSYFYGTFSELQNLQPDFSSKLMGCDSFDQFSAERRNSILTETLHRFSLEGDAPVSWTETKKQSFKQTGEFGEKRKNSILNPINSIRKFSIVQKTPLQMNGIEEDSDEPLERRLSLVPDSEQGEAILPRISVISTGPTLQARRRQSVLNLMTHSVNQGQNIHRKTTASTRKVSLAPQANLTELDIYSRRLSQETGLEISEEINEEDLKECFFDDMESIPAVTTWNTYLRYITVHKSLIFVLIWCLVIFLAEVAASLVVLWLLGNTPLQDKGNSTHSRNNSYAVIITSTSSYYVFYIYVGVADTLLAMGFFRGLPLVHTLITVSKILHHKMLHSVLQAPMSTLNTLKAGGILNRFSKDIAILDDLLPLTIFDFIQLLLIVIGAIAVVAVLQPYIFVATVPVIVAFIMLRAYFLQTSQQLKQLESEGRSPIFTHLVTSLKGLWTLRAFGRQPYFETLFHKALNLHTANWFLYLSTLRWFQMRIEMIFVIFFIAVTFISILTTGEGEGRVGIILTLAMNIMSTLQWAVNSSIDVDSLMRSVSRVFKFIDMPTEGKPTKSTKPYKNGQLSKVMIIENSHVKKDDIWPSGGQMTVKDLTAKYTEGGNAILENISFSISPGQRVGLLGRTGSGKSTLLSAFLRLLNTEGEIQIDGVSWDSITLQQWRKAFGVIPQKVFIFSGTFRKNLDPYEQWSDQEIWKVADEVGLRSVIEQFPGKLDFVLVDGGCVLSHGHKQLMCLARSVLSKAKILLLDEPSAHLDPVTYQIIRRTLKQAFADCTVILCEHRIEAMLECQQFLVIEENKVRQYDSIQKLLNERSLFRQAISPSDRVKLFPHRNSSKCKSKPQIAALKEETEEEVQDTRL

In the case of `Cc1cccc(C)c1-c1cc2nc(n1)NS(=O)(=O)c1cccc(c1)C(=O)N(CC(=O)N1[C@H](C)CCC[C@@H]1C)[C@H](CC(C)(C)C)CO2` [Compound 190], under setting [1], the activation at 10 µM is greater than 600%. As to `COCCCNc1cccc(CN2C(=O)c3cccc(c3)S(=O)(=O)Nc3nc(cc(-c4c(C)cccc4C)n3)OC[C@H]2CC(C)(C)C)n1` [Compound 472], the activation at 10 µM (Table 10, at 10 μM, read-out: HBE activity at 10 (μM) (%)) was greater than 60%. Besides, the Emax under setting [2] is greater than 60%.

Regarding `Cc1cccc(C)c1-c1cc2nc(n1)NS(=O)(=O)c1cccc(c1)C(=O)N(Cc1cccc(N3CCCC3C(C)(C)O)n1)[C@H](CC(C)(C)C)CO2` (stereo partly shown) [Compound 1123], the activation at 10 µM under setting [1] was greater than 600%. Regarding `Cc1cccc(C)c1-c1cc2nc(n1)NS(=O)(=O)c1cccc(c1)C(=O)N(Cc1cccc(N(C)C3CC4(CC4)C3)n1)[C@H](CC(C)(C)C)CO2` [Compound 581], where the note is “Table 12”, the EC50 was less than 1000 nM. The Emax (Table 12, read-out: HBE Max Activity (%)) is greater than 60%. On to `Cc1cccc(C)c1-c1cc2nc(n1)NS(=O)(=O)c1cccc(c1)C(=O)N(Cc1ncc(CC(C)C)cn1)[C@H](CC(C)(C)C)CO2` [Compound 120, (11R)-6-(2,6-Dimethylphenyl)-11-(2,2-dimethylpropyl)-12-[(5-isobutylpyrimidin-2-yl)methyl]-2,2-dioxo-9-oxa-2λ^6-thia-3,5,12,19-tetrazatricyclo[12.3.1.14,8]nonadeca-1(18),4(19),5,7,14,16-hexaen-13-one], for which the concentration for a half-maximal effect (EC50) (Table 11) was less than 1000 nM. The Emax under setting [3] is greater than 60%. With `Cc1cccc(C)c1-c1cc2nc(n1)NS(=O)(=O)c1cccc(c1)C(=O)N(CC(=O)NCc1ccccn1)[C@H](CC(C)(C)C)CO2` [Compound 220], under setting [1], the activation at 10 µM was greater than 600%.

Take `Cc1cccc(C)c1-c1cc2nc(n1)NS(=O)(=O)c1cccc(c1)C(=O)N(CC(=O)N1C[C@H](C)O[C@@H](C)C1)[C@H](CC(C)(C)C)CO2` [Compound 185]: under setting [1], the activation at 10 µM was greater than 600%. `CNC(=O)COc1ccccc1CN1C(=O)c2cccc(c2)S(=O)(=O)Nc2nc(cc(-c3c(C)cccc3C)n2)OC[C@H]1CC(C)(C)C` [Compound 776]: the EC50 (Table 10) was less than 1000 nM. In addition, under setting [2], the Emax was greater than 60%. For `Cc1cccc(C)c1-c1cc2nc(n1)NS(=O)(=O)c1cccc(c1)C(=O)N(CCc1ccc(N3CCC(C)(C)C3)nc1)[C@H](CC(C)(C)C)CO2` [Compound 473], the half-maximal effective concentration (EC50) (Table 11) was less than 1000 nM. The Emax under setting [3] was greater than 60%.

In the case of `Cc1cccc(C)c1-c1cc2nc(n1)NS(=O)(=O)c1cccc(c1)C(=O)N(Cc1cncc(N3CC[C@@H]4COC[C@@H]43)n1)[C@H](CC(C)(C)C)CO2` [Compound 1540], the activation at 10 µM (HBE assay, 10 μM, read-out: HBE Activity at 10 μM (%)) was greater than 60%.

Turning to `Cc1cccc(C)c1-c1cc2nc(n1)NS(=O)(=O)c1cccc(c1)C(=O)N(Cc1ncc(O[C@H](C)C(C)C)cn1)[C@H](CC(C)C)CO2` [Compound 1434], where the note is “HBE assay”, the EC50 fell in the range of 1000 to 3000 nM. Besides, for the setting “HBE assay, read-out: HBE Max activity (%)”, the Emax is greater than 60%. Turning to `Cc1cccc(C)c1-c1cc2nc(n1)NS(=O)(=O)c1cccc(c1)C(=O)N(Cc1cccc(N(CC3CC3)C(C)C)n1)[C@H](CC(C)(C)C)CO2` [Compound 235], the 50% effective concentration (EC50) (Table 13) is less than 1000 nM. For the same compound, the Emax under setting [4] was greater than 60%. On to `Cc1cccc(C)c1-c1cc2nc(n1)NS(=O)(=O)c1cccc(c1)C(=O)N(Cc1nccc(N(C)C(C)C)n1)[C@H](CC(C)C)CO2` [Compound 552], for which, for the setting “Table 12, at 10 μM, read-out: HBE Activity at 10 μM (%)”, the activation at 10 µM is greater than 600%.

For the compound `Cc1cc(OC(C)C)cnc1CN1C(=O)c2cccc(c2)S(=O)(=O)Nc2nc(cc(-c3c(C)cccc3C)n2)OC[C@H]1CC(C)(C)C` [Compound 1116], the 50% effective concentration (EC50) (Table 13) is less than 1000 nM. Also, under setting [4], the Emax is greater than 60%. In the case of `Cc1cccc(C)c1-c1cc2nc(n1)NS(=O)(=O)c1cccc(c1)C(=O)N(CC1CCC(C)(C)OC1)[C@H](CC(C)(C)C)CO2` (single isomer, unassigned) [Compound 31], where the note is “Table 11, at 10 μM, read-out: HBE Activity at 10 μM (%)”, the activation at 10 µM was greater than 60%.

`Cc1cccc(C)c1-c1cc2nc(n1)NS(=O)(=O)c1cccc(c1)C(=O)N(Cc1ncccc1OC(C)C)[C@H](CC(C)(C)C)CO2` [Compound 741]: the EC50 (Table 11) is less than 1000 nM. In addition, under setting [3], the Emax is greater than 60%.

Values taken from US20240150377A1, “MODULATORS OF CYSTIC FIBROSIS TRANSMEMBRANE CONDUCTANCE REGULATOR” (VERTEX PHARMACEUTICALS INCORPORATED, priority 2020, published 2024).
